Measured values published in patent publication US20230312587A1, “PTERIDINONE COMPOUNDS AND USES THEREOF” (Vertex Pharmaceutical Incorporated, priority 2018, published 2023).
Like-named read-outs stand apart in the source and are kept apart here.

Tests used:
[1] = tested on: β-catenin-TCF-mediated reporter transcription activity in Colo 205 cells; test: Colo 205 reporter assay (TCF/LEF luciferase); assay type: cell-based; conditions: Colo 205 TCF/LEF luciferase reporter, five hours after addition of compound, read-out: TCF reporter Colo205 IC50
Procedure, shortened: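 Luciferase signal from a TCF/LEF-driven reporter, stably integrated in Colo 205 colon cancer cells, was measured 5 h after compound addition.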

[2] = tested on: Colo205-TCF/LEF-Luciferase (Luc) tumor; test: In vivo inhibition of TCF/LEF reporter activity in Colo-205 tumors; set-up: concentration or dose not given beside the values; conditions: TCF/LEF luciferase reporter in Colo-205 tumors, nu/nu mice, oral gavage
Procedure: Colo205-TCF/LEF-Luciferase (Luc) tumor cells were expanded in complete DMEM cell culture media [DMEM (Life Technologies, product #11960-051) media supplemented with 10% FBS (Hyclone, catalog #SH30071.03), antimycotic/antibiotic (Life Technologies, product #15240-062), and Glutamax (Life Technologies, product #35050-061)] with 1 ug/ml puromycin. After reaching confluency/high density, the loosely attached cells in media were transferred from the flask to 50 ml conical tubes. Tumor cells adhered to plastic were detached with trypsin and combined with cells in the conical tubes. The tumor cells were triturated, counted, and pelleted by centrifugation. Cell pellets were resuspended in 0.9% injectable saline (6×10^7 cells/ml). A 50 ul volume (3×10^6 cells) was injected subcutaneously in the flanks of 4-6 wk old female nu/nu mice (Charles River Laboratories). Approximately 13-16 days after implantation, tumors between 200-500 mm^3 were selected (based on caliper measurements and applying the formula […]) and randomized into groups of n=4. Mice were dosed by oral gavage with compound dissolved in 1:3:5:1 EtOH:DMSO:PEG-400:H2O at a rate of 10 ml/kg or 1:3:5:1 EtOH:DMSO:PEG-400:H2O alone (Vehicle Control). Tumors were collected from mice euthanized by CO2 inhalation and snap frozen in liquid nitrogen. Tumors were stored in a −80 degrees C. freezer until they were processed.
Tumors were thawed on ice and homogenized in cold Lysis Buffer (20 mM Tris-HCl (pH 7.5), 150 mM NaCl, 1 mM Na2EDTA, 1 mM EGTA, 1% Triton, 2.5 mM sodium pyrophosphate, 1 mM beta-glycerophosphate, 1 mM Na3VO4, 1 μg/ml leupeptin, 0.05% SDS) using a closed tissue grinder system (Fisher Scientific, Cat #02-542-09) on ice according to manufacturer's instructions. For 100 mg of tumor, 500 uL of Lysis Buffer was used. Tumor lysate was transferred to a pre-chilled microcentrifuge tube and centrifuged at 10,000×g for 10 minutes at 4 degrees C. Supernatant was transferred to a new pre-chilled microcentrifuge tube and was used immediately for analysis of protein content and luciferase activity.
Protein content of tumor lysate supernatant was determined using the BCA assay (Life Technologies Cat #23225). Luciferase activity of tumor lysate supernatant was determined by addition of Steady-Glo luminescence reagent (Promega, Cat #E2550) according to manufacturer's instructions and measurement on a Pherastar luminescence plate reader (BMG Labtech). Luciferase activity was normalized to protein content.

SMILES	IC50 ([1]; Homo sapiens, COLO 205, 5 h) [µM]	Percent Remaining Activity at 8 hrs after Dosing [2] [%]	IC50 [1] [µM]
Cc1nc(NC2CN(C(=O)c3cc(F)c(F)c(F)c3)C2)nc2c1NC(=O)[C@H](C(C)C)N2C [Compound 496, (S)-7-isopropyl-4,8-dimethyl-2-((1-(3,4,5-trifluorobenzoyl)azetidin-3-yl)amino)-7,8-dihydropteridin-6(5H)-one]	< 0.3	17	
Cc1nc(N[C@@H]2CCc3nn(Cc4ccc(C(F)(F)F)nc4)cc32)nc2c1NC(=O)[C@H](C(C)C)N2C [Compound 522, (S)-7-isopropyl-4,8-dimethyl-2-(((R)-2-((6-(trifluoromethyl)pyridin-3-yl)methyl)-2,4,5,6-tetrahydrocyclopenta[c]pyrazol-4-yl)amino)-7,8-dihydropteridin-6(5H)-one]	< 0.3	91	
Cc1nc(NCc2cnn(Cc3cc(F)c(F)c(F)c3)c2)nc2c1NC(=O)[C@H](C(C)C)N2C [Compound 449, (S)-7-isopropyl-4,8-dimethyl-2-(((1-(3,4,5-trifluorobenzyl)-1H-pyrazol-4-yl)methyl)amino)-7,8-dihydropteridin-6(5H)-one]	< 0.3	22	
COc1c(F)cc(Cn2cc(CNc3nc(C)c4c(n3)N(C)[C@@H](C(C)C)C(=O)N4)cn2)cc1F [Compound 450, (S)-2-(((1-(3,5-difluoro-4-methoxybenzyl)-1H-pyrazol-4-yl)methyl)amino)-7-isopropyl-4,8-dimethyl-7,8-dihydropteridin-6(5H)-one]	< 0.3	32	
Cc1nc(N[C@H]2C[C@@H](Nc3ccc(C(F)(F)F)nn3)C2)nc2c1NC(=O)[C@H](C(C)C)N2C [Compound 556, (S)-7-isopropyl-4,8-dimethyl-2-((cis-3-((6-(trifluoromethyl)pyridazin-3-yl)amino)cyclobutyl)amino)-7,8-dihydropteridin-6(5H)-one]	< 0.3	62	
Cc1nc(NCc2cnn(Cc3ccc(C(F)(F)F)nc3)c2)nc2c1NC(=O)[C@H](C(C)(C)C)N2C [Compound 436, (7S)-7-(tert-butyl)-4,8-dimethyl-2-(((1-((6-(trifluoromethyl)pyridin-3-yl)methyl)-1H-pyrazol-4-yl)methyl)amino)-7,8-dihydropteridin-6(5H)-one]	< 0.3	16	
CO[C@H](C)[C@H]1C(=O)Nc2c(C)nc(NCc3cnn(Cc4ccc(OC(F)(F)F)nc4)c3)nc2N1C [Compound 565, (S)-7-((R)-1-methoxyethyl)-4,8-dimethyl-2-(((1-((6-(trifluoromethoxy)pyridin-3-yl)methyl)-1H-pyrazol-4-yl)methyl)amino)-7,8-dihydropteridin-6(5H)-one]	< 0.3	68	
CO[C@H](C)[C@H]1C(=O)Nc2c(C)nc(NCc3cnn(Cc4cc(C(F)(F)F)nn4C)c3)nc2N1C [Compound 656, (S)-7-((R)-1-methoxyethyl)-4,8-dimethyl-2-(((1-((1-methyl-3-(trifluoromethyl)-1H-pyrazol-5-yl)methyl)-1H-pyrazol-4-yl)methyl)amino)-7,8-dihydropteridin-6(511)-one]		51	< 0.3
CO[C@H](C)[C@H]1C(=O)Nc2c(C)nc(NCc3cnn(Cc4ccc(F)cc4)c3)nc2N1C [Compound 658, (S)-2-(((1-(4-fluorobenzyl)-1H-pyrazol-4-yl)methyl)amino)-7-((R)-1-methoxyethyl)-4,8-dimethyl-7,8-dihydropteridin-6(5H)-one]	< 0.3	62	
Cc1nc(NCc2cnn(Cc3ccc(C(F)F)nc3)c2)nc2c1NC(=O)[C@H](C(C)C)N2C [Compound 500, (S)-2-(((1-((6-(difluoromethyl)pyridin-3-yl)methyl)-1H-pyrazol-4-yl)methyl)amino)-7-isopropyl-4,8-dimethyl-7,8-dihydropteridin-6(5H)-one]	< 0.3	43	
Cc1nc(N[C@H]2C[C@@H](Nc3cc(C(F)(F)F)ncn3)C2)nc2c1NC(=O)[C@H](C(C)C)N2C [Compound 528, (S)-7-isopropyl-4,8-dimethyl-2-((cis-3-((6-(trifluoromethyl)pyrimidin-4-yl)amino)cyclobutyl)amino)-7,8-dihydropteridin-6(5H)-one]	< 0.3	28	
Cc1nc(N[C@H]2C[C@@H](Nc3cnc(C(F)(F)F)cn3)C2)nc2c1NC(=O)[C@H](C)N2C [Compound 578, (S)-4,7,8-trimethyl-2-((cis-3-((5-(trifluoromethyl)pyrazin-2-yl)amino)cyclobutyl)amino)-7,8-dihydropteridin-6(5H)-one]	< 0.3	47	
Cc1nc(N[C@H]2C[C@@H](Nc3cnc(C(F)(F)F)cn3)C2)nc2c1NC(=O)[C@H](C(C)C)N2C [Compound 557, (S)-7-isopropyl-4,8-dimethyl-2-((cis-3-((5-(trifluoromethyl)pyrazin-2-yl)amino)cyclobutyl)amino)-7,8-dihydropteridin-6(5H)-one]	< 0.3	20	
Cc1nc(N[C@H]2C[C@@H](Nc3cnc(C#N)cn3)C2)nc2c1NC(=O)[C@H](C(C)C)N2C [Compound 602, 5-((cis-3-(((S)-7-isopropyl-4,8-dimethyl-6-oxo-5,6,7,8-tetrahydropteridin-2-yl)amino)cyclobutyl)amino)pyrazine-2-carbonitrile]	0.3 to 1	57	
Cc1nc(NCc2cnn(Cc3cnc(Cl)s3)c2)nc2c1NC(=O)[C@H](C(C)C)N2C [Compound 491, (S)-2-(((1-((2-chlorothiazol-5-yl)methyl)-1H-pyrazol-4-yl)methyl)amino)-7-isopropyl-4,8-dimethyl-7,8-dihydropteridin-6(5H)-one]	< 0.3	41	
